Our source for the Minimum inhibitory concentration values is paper PMC5379193, “Pathogen recognition of a novel C-type lectin from Marsupenaeus japonicus reveals the divergent sugar-binding specificity of QAP motif” (Scientific Reports, 2017).

This assay has as its target T1, MjGCTL (rMjGCTL) (Penaeus japonicus, UniProt A0A1L7MZX5).
T1 construct: gene GCTL; secreted from Drosophila S2 cells (pMT/BiP/V5-His C), V5 and His tags kept, Ni-NTA purified; ~50 kDa, glycosylated; ORF 311 aa, 35 kDa predicted; LDLa domain plus CRD (QAP motif)
T1 sequence (A0A1L7MZX5 17-311): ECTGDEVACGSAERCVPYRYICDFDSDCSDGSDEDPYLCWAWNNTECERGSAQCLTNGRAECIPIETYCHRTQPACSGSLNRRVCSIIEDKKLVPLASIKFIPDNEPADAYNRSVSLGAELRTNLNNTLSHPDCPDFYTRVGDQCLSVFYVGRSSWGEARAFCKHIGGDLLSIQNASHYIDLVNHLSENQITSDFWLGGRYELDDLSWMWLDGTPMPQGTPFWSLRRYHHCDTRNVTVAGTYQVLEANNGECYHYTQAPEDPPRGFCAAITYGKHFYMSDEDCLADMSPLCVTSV
Kind of assay: inhibition of bacterial agglutination by purified rMjGCTL. The format is biochemical. To be noted: V. parahaemolyticus named for Man/Gal/Glc; TBS with 10 mM CaCl2, pH 7, 25 °C; 1 h preincubation; Ca2+-dependent. From the text: inhibition of bacterial agglutination by purified rMjGCTL on MjGCTL (rMjGCTL)

SMILES strings stand for the structures. Converted amounts (≈) assume the structure as drawn.

`OC[C@H]1O[C@@H](O[C@H]2[C@H](O)[C@@H](O)C(O)O[C@@H]2CO)[C@H](O)[C@@H](O)[C@H]1O` (stereo partly drawn) [Lactose] yielded a Minimum inhibitory concentration of 250 mM (≈ 85.6 mg/mL).

`CC(=O)N[C@H]1C(O)O[C@H](CO)[C@@H](O)[C@@H]1O` (stereo partly drawn) [N-Acetyl-D-glucosamine] displayed a Minimum inhibitory concentration of 250 mM (≈ 55.3 mg/mL).

Compound `C[C@@H]1OC(O)[C@@H](O)[C@H](O)[C@@H]1O` (stereo partly drawn) [Fucose] showed a Minimum inhibitory concentration of 250 mM (≈ 41 mg/mL).

Turning to `OC[C@H]1OC(O)[C@H](O)[C@@H](O)[C@@H]1O` (stereo partly drawn) [D-glucose], the Minimum inhibitory concentration is 100 mM (≈ 18 mg/mL).

For the compound `OC1OC[C@@H](O)[C@H](O)[C@H]1O` (stereo partly drawn) [Xylose], the Minimum inhibitory concentration is listed as 62.5 mM (≈ 9.38 mg/mL).

`OC[C@H]1O[C@H](O[C@H]2[C@H](O)[C@@H](O)C(O)O[C@@H]2CO)[C@H](O)[C@@H](O)[C@@H]1O` (stereo partly drawn) [Maltose] displayed a Minimum inhibitory concentration of 125 mM (≈ 42.8 mg/mL).
